# Laboratory results published in patent publication US6608073B1 (New Millennium Pharmaceutical Research, Inc., priority 1998, dated 2003).
# Experiments:
# [1] = Plasma levels of codeine in rats after intravenous or intranasal administration (HPLC)
# Description: One hundred μL of rat plasma was treated with 100 μL of acetonitrile to precipitate the proteins. This mixture was centrifuged for 5 minutes at 5,000×g. The clear supernatant was injected onto the HPLC column.
# The HPLC system included the following:
# Column: Altex 5 micron Ultrasphere, 4.6 mm×25 cm
# Mobile Phase: Acetonitrile: 0.01 M Acetate buffer (pH 4.0)−50:50
# Standard Curve: See FIG. 1
# [2] = in vivo; cited from earlier work
# [3] = Penetration of codeine into CSF of rats after intravenous or intranasal administration (HPLC); details: 60 minutes post-dose
# Description: At 60 minutes post-dose, the rats were sacrificed, and the CSF (0.1 ml) was recovered and injected directly onto the HPLC column.
# [4] = rat, plasma, inhaled or intranasal, 10 mg/kg
# [5] = rat, plasma, other: intranasal, 5 mg/kg
# [6] = rat, plasma, other: intranasal, 10 mg/kg
compound,measurement,setting,value
COc1ccc2c3c1O[C@H]1[C@@H](O)C=C[C@H]4[C@@H](C2)N(C)CC[C@@]341 [Codeine],AUC(0-t),"[1]; rat, plasma, inhaled or intranasal, 5 mg/kg",1480 ng·h/mL
same,AUC(0-t),[1]; [4],2840 ng·h/mL
same,bioavailability,[1]; [4],115%
same,AUC(0-t),"[1]; rat, plasma, iv, 10 mg/kg",2460 ng·h/mL
same,concentration at 0 min,"[1]; rat, plasma, iv, 10 mg/kg",19400 ng/mL
same,concentration at 2 min,"[1]; rat, plasma, iv, 10 mg/kg",9400 ng/mL
same,concentration at 5 min,"[1]; rat, plasma, iv, 10 mg/kg",5200 ng/mL
same,concentration at 10 min,"[1]; rat, plasma, iv, 10 mg/kg",2700 ng/mL
same,concentration at 20 min,"[1]; rat, plasma, iv, 10 mg/kg",2040 ng/mL
same,concentration at 40 min,"[1]; rat, plasma, iv, 10 mg/kg",1220 ng/mL
same,concentration at 60 min,"[1]; rat, plasma, iv, 10 mg/kg",860 ng/mL
same,concentration at 0 min,[1]; [5],0 ng/mL
same,concentration at 2 min,[1]; [5],840 ng/mL
same,concentration at 5 min,[1]; [5],2880 ng/mL
same,concentration at 10 min,[1]; [5],3150 ng/mL
same,concentration at 20 min,[1]; [5],2240 ng/mL
same,concentration at 40 min,[1]; [5],600 ng/mL
same,concentration at 60 min,[1]; [5],560 ng/mL
same,concentration at 0 min,[1]; [6],0 ng/mL
same,concentration at 2 min,[1]; [6],1400 ng/mL
same,concentration at 5 min,[1]; [6],5100 ng/mL
same,concentration at 10 min,[1]; [6],7620 ng/mL
same,concentration at 20 min,[1]; [6],3320 ng/mL
same,concentration at 40 min,[1]; [6],1420 ng/mL
same,concentration at 60 min,[1]; [6],1100 ng/mL
same,Absorption following intranasal administration compared with intravenous,"[1]; rats, IN vs IV",rapidly and completely absorbed
same,Half-life in plasma,[2],2 to 4 h
same,CSF levels for 5 mg/kg intranasally compared with 10 mg/kg intravenously,[3],much higher
